Test results taken from publication PMC8301423, “The Effects of Temperature and Pressure on Protein-Ligand Binding in the Presence of Mars-Relevant Salts” (Biology, 2021).

Target: T1, bovine serum albumin (BSA) (Bos taurus, UniProt P02769)
T1 construct: BSA, molecular weight of 66 kDa, 583 residues; purchased Sigma Aldrich Chemicals (Taufkirchen, Germany)
Assay: Job's plot (method of continuous variation) by steady-state fluorescence for binding stoichiometry
Conditions: 1 bar
Method: First, we explored the impact of 250 mM MgCl2, Mg(ClO4)2, and MgSO4 on the ligand binding process at 25 °C and ambient pressure (1 bar). To be able to determine the binding constant, it is of fundamental importance to exactly know the stoichiometry of the complex formed. In this way, a proper binding model can be applied in the data analysis of the measured binding isotherms, providing the most appropriate value of the binding constant, Kb. We applied the method of continuous variation (or Job’s plot) for the estimation of the binding stoichiometry by means of steady-state fluorescence spectroscopy. A series of solutions were prepared such that the total concentration (i.e., [ANS] + [BSA]) is constant, while the mole fractions of the interacting partners were varied. Discontinuities in the plot of fluorescence intensity vs. xANS (where xANS is the mole fraction of ANS) are indicative of the stoichiometry of the complex formed.

[1] = 250 mM Mg(ClO4)2, 25 °C, [ANS]+[BSA] 35 µM

T1 sequence (P02769 25-607): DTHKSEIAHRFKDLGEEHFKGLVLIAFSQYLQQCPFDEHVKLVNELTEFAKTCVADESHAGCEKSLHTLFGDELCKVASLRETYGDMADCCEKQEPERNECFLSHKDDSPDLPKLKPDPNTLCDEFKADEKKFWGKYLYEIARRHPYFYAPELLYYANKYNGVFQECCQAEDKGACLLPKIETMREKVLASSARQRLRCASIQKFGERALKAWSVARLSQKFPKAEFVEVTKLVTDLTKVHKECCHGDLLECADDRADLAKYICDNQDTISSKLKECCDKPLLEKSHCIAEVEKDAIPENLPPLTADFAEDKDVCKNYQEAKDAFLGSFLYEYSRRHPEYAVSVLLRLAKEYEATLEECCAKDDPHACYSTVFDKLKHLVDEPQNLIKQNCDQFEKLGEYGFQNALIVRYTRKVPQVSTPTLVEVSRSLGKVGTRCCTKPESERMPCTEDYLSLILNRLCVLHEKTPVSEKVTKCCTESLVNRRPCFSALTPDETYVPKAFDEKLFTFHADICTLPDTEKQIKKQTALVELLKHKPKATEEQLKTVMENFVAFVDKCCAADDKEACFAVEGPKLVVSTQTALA

SMILES: O=S(=O)(O)c1cccc2cccc(Nc3ccccc3)c12 [ANS, 8-anilinonaphthalene-1-sulfonic acid]
- ANS molecules bound to one BSA molecule (250 mM Mg(ClO4)2, 25 °C): two
- Job's plot first inflection point xANS [1]: 0.5
- Job's plot second inflection point xANS [1]: ≈ 0.65
- Job's plot inflection point xANS (mole fraction of ANS) (250 mM MgCl2, 25 °C, [ANS]+[BSA] 35 µM): ≈ 0.75
- ANS molecules bound to one BSA molecule (250 mM MgSO4, 25 °C): three
- Job's plot inflection point xANS (mole fraction of ANS) (250 mM MgSO4, 25 °C, [ANS]+[BSA] 35 µM): ≈ 0.75
